This note sets out measurements from BindingDB's records for doi:10.7270/Q2QN656Q (The Scripps Research Institute Molecular Screening Center, 2010).

“And” between values parts separate entries of the source, which are not always exact repeats. Equal entries are not always repeated.

The target in the assay is Serine/threonine-protein phosphatase PP1-alpha catalytic subunit (Homo sapiens, UniProt P62136). The experiment in a line: inhibition of protein phosphatase 1 activity – biochemical, fluorescence, dose response (AID 2403).
Chain of Serine/threonine-protein phosphatase PP1-alpha catalytic subunit (P62136 whole entry): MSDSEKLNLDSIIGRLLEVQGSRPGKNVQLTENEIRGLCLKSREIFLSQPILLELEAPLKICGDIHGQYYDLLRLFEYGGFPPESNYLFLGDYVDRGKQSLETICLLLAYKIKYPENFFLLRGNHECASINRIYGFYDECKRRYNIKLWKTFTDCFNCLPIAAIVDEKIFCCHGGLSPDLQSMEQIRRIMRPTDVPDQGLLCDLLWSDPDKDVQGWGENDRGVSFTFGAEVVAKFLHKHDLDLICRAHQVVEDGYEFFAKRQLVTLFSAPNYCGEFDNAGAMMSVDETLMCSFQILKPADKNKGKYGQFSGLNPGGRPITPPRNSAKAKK
For `CC1(C)Cc2c(nn(-c3ccccc3)c(=N)c2C#N)CO1`, the midpoint of inhibition, the IC50, lay at 55.8 µM. This counts as double-digit micromolar.
Then `O=C1OC(=O)[C@H]2[C@@H]1[C@@H]1CC[C@H]2O1` [(1R,2S,6R,7S)-4,10-Dioxa-tricyclo[5.2.1.0*2,6*]decane-3,5-dione], with 4.12 µM and 2.83 µM; and `COc1ccc(CN=Nc2cc(C)nc(-n3nc(C)cc3C)n2)c(OC)c1` [MLS000589396], with 6.68 µM.
As for `CCOC(=O)c1sc(N2C(=O)C(=O)C(C(=O)c3ccco3)C2c2cccc([N+](=O)[O-])c2)nc1C` (stereo not given) [MLS001082998], half-maximal inhibition (IC50) was put at 11.8 µM.
Next, `COc1ccc(CN=Nc2cc(C)nc(-n3nc(C)cc3C)n2)cc1` [SMR000212741]: 5.81 µM.
